The results in this text go back to publication PMC6572184, “New γ-Halo-δ-lactones and δ-Hydroxy-γ-lactones with Strong Cytotoxic Activity” (Molecules, 2019).

Type in all cases: cell-based
Data set [1] relates to Escherichia coli ATCC 8739. In words: Bactericidal activity, CFU counting method. The conditions noted are these: E. coli ATCC 8739; 18 h at 37 °C; Control 9.47, Control with DMSO 9.30. As for the experimental part:
(§1) The bacterial cultures: Escherichia coli ATCC 8739 and Staphylococcus aureus ATCC 65389 were grown on Luria–Bertani Agar for 18 h at 37 ^∘ C. The strain suspension was prepared in 0.85% saline, with an optical density equivalent to a 0.5 McFarland standard. Next, the following mixtures were prepared: 180 μ L of sterile enriched broth (BTL), 10 μ L of the bacterial suspension and 10 μ L of the tested compound (range 0.1–50 μ g/mL) solubilized in DMSO. As a negative control, only DMSO was added. As a sterility control, 180 μ L of BTL and 20 μ L saline were used. The microtiter plate was incubated at 37 ^∘ C for 18 h. The colony forming unit (CFU) method was used to evaluate the microbial population. The experiment was repeated three times. Gentamicin was used as the reference antibiotic.

In data set [2] the test system is Staphylococcus aureus ATCC 65389. In words: Bactericidal activity, CFU counting method. The note with it: S. aureus ATCC 65389; for Number of CFU/mL (× 10^7): 18 h at 37 °C, Control 21.36, Control with DMSO 20.85; for less CFU/mL (reduction of the number of CFU/mL): versus control. As for the experimental part:
as §1

The subject of data set [3] is AGS cell lines (human gastric adenocarcinoma). The data set can be described thus: MTT reduction cytotoxicity assay. The conditions noted are these: for mean percentage of viable cells ± SD: 24 h. As for the experimental part: (§2) Cell cultures: The L929 mouse fibroblasts and human gastric adenocarcinoma cell line AGS were used for in vitro cytotoxicity assays. The cells were maintained under standard conditions (37 ^∘ C, 5% CO 2 ) in 25 cm^2 tissue culture flasks in RPMI-1640 medium supplemented with 10% fetal bovine serum (FBS) and antibiotics: 100 U/mL penicillin and 100 μ g/mL streptomycin. The cell suspension containing 10 ^8 cells in 1 mL, was obtained by treatment of confluent monolayers with 0.25% trypsin solution, washed and subcultured. Cell cultures were supplemented with medium to maintain them in log phase growth. The viability of the cells was assessed by exclusion of trypan blue dye.
(§3) Measurements of cellular metabolic activity and global growth inhibition: L929 cells were seeded into 96-well plates (2 × 10 ^5 cells/well) for 24 h, at 37 ^∘ C, 5% CO2 . Tested compounds 5a–c, 6a–c, 7a–c, 8a–c, 9b,c, 10b,c, 12a and 13a were diluted serially in RPMI-1640 medium in concentrations of 50, 20, 10, 5, 0.5 and 0.1 μ g/mL, added to the cells (100 μ L/well), and incubated under standard conditions for 24 h. The potential harmful effect of lactones on L929 and AGS cells was assessed by the ability of the cells to reduce 3-(4,5-dimethylthiazol-2-yl)-2,5-diphenyltetrazolium bromide (MTT) to formazan. The solution of MTT (5 mg/mL in PBS), was added to each well and the plates were incubated for 4h at 37 ^∘ C. Formazan crystals were dissolved with acidic isopropanol (0.1 M HCl in absolute isopropanol) and the plates were read in a plate reader (Victor 2) at 570 nm. The percentage of MTT reduction was calculated by comparing the absorbance of treated cells to that of untreated control cells. Results are expressed as the mean percentage of viable cells ± standard deviation (SD) of four independent experiments. Statistical significance was accepted at a p-value < 0.05.

In data set [4] the test system is L929 cell lines (mouse fibroblasts). The data set can be described thus: MTT reduction cytotoxicity assay. The conditions noted are these: 24 h. As for the experimental part: as §2, §3

As usually defined, the IC50 is the midpoint of a concentration-inhibition curve. Read a low IC50 as greater potency. Regarding `CC1CC(=O)OC(c2ccccc2)C1Cl` (mixture of isomers) [6b, Cis,trans-5-chloro-tetrahydro-4-methyl-6-phenylpyran-2-one], the “Number of CFU/mL (× 10^7)” value in data set [1] was 6.32 × 10^7 CFU/mL; in data set [2], 3.58 × 10^7 CFU/mL. Moreover, the “less CFU/mL (reduction of the number of CFU/mL)” value in data set [2] is 78–83%. In data set [3], this molecule gave an IC50 of 4400 nM. The “mean percentage of viable cells ± SD” value is listed as 42 ± 0.02% in data set [3] (0.1 μg/mL); 35 ± 0.02% in data set [3] (0.5 μg/mL); 28 ± 0.03% in data set [3] (5 μg/mL); 21 ± 0.02% in data set [3] (10 μg/mL); 14 ± 0.07% in data set [3] (20 μg/mL); 8 ± 0.06% in data set [3] (50 μg/mL). In addition, the “mean percentage of viable cells ± SD” value in data set [4] (0.1 μg/mL) turned out to be 32 ± 0.07%; in data set [4] (0.5 μg/mL), 27 ± 0.12%; in data set [4] (5 μg/mL) it was 25 ± 0.02%; in data set [4] (10 μg/mL) it was 16 ± 0.03%; in data set [4] (20 μg/mL), 4 ± 0.15%; in data set [4] (50 μg/mL), 2 ± 0.05%.

Take `CC1CC(=O)OC(c2ccc(F)cc2)C1Br` (mixture of isomers) [8c, Cis,trans-5-bromo-6-(4-fluorophenyl)-tetrahydro-4-methylpyran-2-one]: the “Number of CFU/mL (× 10^7)” value was 8.87 × 10^7 CFU/mL in data set [1] and 3.60 × 10^7 CFU/mL in data set [2]. In addition, the “less CFU/mL (reduction of the number of CFU/mL)” value in data set [2] is given as 78–83%. The molecule also registered a concentration for half-maximal inhibition (IC50) in data set [3] of 2500 nM. Besides, the “mean percentage of viable cells ± SD” value in data set [3] (0.1 μg/mL) came to 69 ± 0.15%; in data set [3] (0.5 μg/mL), 58 ± 0.10%; in data set [3] (5 μg/mL), 43 ± 0.10%; in data set [3] (10 μg/mL), 18 ± 0.07%; in data set [3] (20 μg/mL), 11 ± 0.03%; in data set [3] (50 μg/mL) it was 10 ± 0.09%. The “mean percentage of viable cells ± SD” value in data set [4] (0.1 μg/mL) came out at 25 ± 0.03%; in data set [4] (0.5 μg/mL), 20 ± 0.08%; in data set [4] (5 μg/mL) it was 15 ± 0.03%; in data set [4] (10 μg/mL) it was 11 ± 0.03%; in data set [4] (20 μg/mL), 5 ± 0.02%; in data set [4] (50 μg/mL), 1 ± 0.05%.

Take `CC1CC(=O)OC(c2ccc(F)cc2)C1Br` (stereo not drawn) [7c, Trans,trans-5-bromo-6-(4-fluorophenyl)-tetrahydro-4-methylpyran-2-one]: the “Number of CFU/mL (× 10^7)” value in data set [1] is listed as 6.52 × 10^7 CFU/mL; in data set [2] it was 6.42 × 10^7 CFU/mL. The IC50 in data set [3] was 3500 nM. Besides, the “mean percentage of viable cells ± SD” value in data set [3] (0.1 μg/mL) is given as 63 ± 0.03%; in data set [3] (0.5 μg/mL) it was 49 ± 0.06%; in data set [3] (5 μg/mL) it was 42 ± 0.02%; in data set [3] (10 μg/mL), 25 ± 0.12%; in data set [3] (20 μg/mL), 18 ± 0.10%; in data set [3] (50 μg/mL) it was 8 ± 0.07%. The “mean percentage of viable cells ± SD” value in data set [4] (0.1 μg/mL) is listed as 27 ± 0.08%; in data set [4] (0.5 μg/mL) it was 21 ± 0.08%; in data set [4] (5 μg/mL) it was 17 ± 0.02%; in data set [4] (10 μg/mL), 11 ± 0.08%; in data set [4] (20 μg/mL) it was 5 ± 0.05%; in data set [4] (50 μg/mL) it was 1 ± 0.03%.

As for `CC1CC(=O)OC(c2ccccc2)C1Br` (mixture of isomers) [8b, Cis,trans-5-bromo-tetrahydro-4-methyl-6-phenylpyran-2-one], the “Number of CFU/mL (× 10^7)” value is given as 5.83 × 10^7 CFU/mL in data set [1] and 9.04 × 10^7 CFU/mL in data set [2]. The molecule also yielded an IC50 in data set [3] of 1900 nM. In addition, the “mean percentage of viable cells ± SD” value in data set [3] (0.1 μg/mL) turned out to be 44 ± 0.15%; in data set [3] (0.5 μg/mL), 35 ± 0.10%; in data set [3] (5 μg/mL) it was 31 ± 0.02%; in data set [3] (10 μg/mL), 28 ± 0.09%; in data set [3] (20 μg/mL), 17 ± 0.10%; in data set [3] (50 μg/mL) it was 11 ± 0.05%. Further, the “mean percentage of viable cells ± SD” value was 24 ± 0.03% in data set [4] (0.1 μg/mL); 17 ± 0.08% in data set [4] (0.5 μg/mL); 15 ± 0.03% in data set [4] (5 μg/mL); 8 ± 0.05% in data set [4] (10 μg/mL); 4 ± 0.08% in data set [4] (20 μg/mL); 1 ± 0.02% in data set [4] (50 μg/mL).

As to `CC1CC(=O)OC(c2ccc(F)cc2)C1Cl` (stereo not drawn) [5c, Trans,trans-5-chloro-6-(4-fluorophenyl)-tetrahydro-4-methylpyran-2-one], the “Number of CFU/mL (× 10^7)” value is 9.46 × 10^7 CFU/mL in data set [1] and 14.83 × 10^7 CFU/mL in data set [2]. Moreover, inhibition in data set [3] was half-maximal at 600 nM (IC50). Further, the “mean percentage of viable cells ± SD” value in data set [3] (0.1 μg/mL) was determined as 54 ± 0.12%; in data set [3] (0.5 μg/mL), 47 ± 0.12%; in data set [3] (5 μg/mL), 44 ± 0.10%; in data set [3] (10 μg/mL) it was 34 ± 0.09%; in data set [3] (20 μg/mL), 21 ± 0.08%; in data set [3] (50 μg/mL), 10 ± 0.12%. For the same molecule, the “mean percentage of viable cells ± SD” value was 26 ± 0.03% in data set [4] (0.1 μg/mL); 21 ± 0.15% in data set [4] (0.5 μg/mL); 14 ± 0.09% in data set [4] (5 μg/mL); 10 ± 0.03% in data set [4] (10 μg/mL); 4 ± 0.06% in data set [4] (20 μg/mL); 2 ± 0.12% in data set [4] (50 μg/mL).

In the case of `CC1CC(=O)OC(c2cccc3ccccc23)C1Br` (mixture of isomers) [8a, Cis,trans-5-bromo-tetrahydro-4-methyl-6-(naphthalen-1-yl)pyran-2-one], the “Number of CFU/mL (× 10^7)” value in data set [1] is 7.14 × 10^7 CFU/mL; in data set [2], 9.29 × 10^7 CFU/mL. Also, in data set [2], the “less CFU/mL (reduction of the number of CFU/mL)” value came to 83%. For the same molecule, in data set [3], the IC50 was found to be 1600 nM. For the same molecule, the “mean percentage of viable cells ± SD” value was 61 ± 0.10% in data set [3] (0.1 μg/mL); 47 ± 0.06% in data set [3] (0.5 μg/mL); 39 ± 0.09% in data set [3] (5 μg/mL); 25 ± 0.05% in data set [3] (10 μg/mL); 17 ± 0.07% in data set [3] (20 μg/mL); 9 ± 0.09% in data set [3] (50 μg/mL). The “mean percentage of viable cells ± SD” value in data set [4] (0.1 μg/mL) is 23 ± 0.03%; in data set [4] (0.5 μg/mL) it was 19 ± 0.03%; in data set [4] (5 μg/mL), 14 ± 0.03%; in data set [4] (10 μg/mL), 7 ± 0.06%; in data set [4] (20 μg/mL) it was 4 ± 0.02%; in data set [4] (50 μg/mL) it was 1 ± 0.15%.
